Laboratory results: patent publication US7452885B2, “Amino-5-(6-membered)heteroarylimidazolone compounds and the use thereof for β-secretase modulation” (Wyeth, priority 2005, dated 2008)

Experiments:
human BACE1 = human BACE1 (Homo sapiens, UniProt P56817); assay: Fluorescent kinetic assay, BACE-1 (Example 114); type: biochemical; details: 10 nM human BACE1, 25 μM substrate WABC-6, 50 mM Na-Acetate pH 4.5, room temperature; read-out: BACE-1 (IC50 μM)
Description: Evaluation of BACE-1 Binding Affinity of Test Compounds
Fluorescent Kinetic Assays
Dilution and mixing steps: total reaction volume: 100 μL
100 μM substrate dilution in 1×PBS was prepared, and
Fluorescence Readings: Readings at λex 320 nm and εem 420 nm are taken every 40 sec for 30 min at room temperature and the linear slope for substrate cleavage rate (vi) determined.

Chain of human BACE1 (P56817 46-501): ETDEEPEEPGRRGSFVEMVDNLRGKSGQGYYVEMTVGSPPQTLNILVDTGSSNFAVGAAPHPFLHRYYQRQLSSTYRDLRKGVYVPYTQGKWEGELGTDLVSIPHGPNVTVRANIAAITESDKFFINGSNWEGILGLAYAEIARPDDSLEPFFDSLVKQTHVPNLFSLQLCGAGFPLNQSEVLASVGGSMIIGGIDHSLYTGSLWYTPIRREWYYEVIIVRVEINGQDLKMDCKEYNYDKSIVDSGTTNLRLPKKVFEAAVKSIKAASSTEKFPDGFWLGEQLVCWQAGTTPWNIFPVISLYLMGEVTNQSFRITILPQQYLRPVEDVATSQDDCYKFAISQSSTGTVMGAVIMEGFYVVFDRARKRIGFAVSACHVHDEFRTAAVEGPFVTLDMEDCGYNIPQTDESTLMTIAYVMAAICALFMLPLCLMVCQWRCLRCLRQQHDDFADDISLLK

Row | SMILES | melting point | IC50 (human BACE1)
1 | CCc1cc(C2(c3cccc(-c4cccnc4)c3)N=C(N)N(C)C2=O)cc(CC)n1 (stereo not shown) [Example 90] | 152 to 157 °C | 0.01 to 0.1 µM
2 | CCc1cc(C2(c3cccc(-c4cc(F)ccc4F)c3)N=C(N)N(C)C2=O)cc(CC)n1 (stereo not shown) [Example 92] | 107 to 112 °C | 0.11 to 1 µM
3 | CCc1cc(C2(c3ccc(F)c(-c4cncc(F)c4)c3)N=C(N)N(C)C2=O)cc(CC)n1 (stereo not shown) [Example 104, 2-Amino-5-(2,6-diethyl-pyridin-4-yl)-5-[4-fluoro-3-(5-fluoropyridin-3-yl)-phenyl]-3-methyl-3,5-dihydro-imidazol-4-one] | 155 to 157 °C | 0.01 to 0.1 µM
4 | CN1C(=O)C(c2ccc(OC(F)F)cc2)(c2cccnc2)N=C1N (stereo not shown) [Example 111, 2-amino-5-[4-(difluoromethoxy)phenyl]-3-methyl-5-pyridin-3-yl-3,5-dihydro-4H-imidazol-4-one] | 173 to 175 °C | > 1 µM
5 | CN1C(=O)C(c2ccncc2)(c2ccc(OC(F)F)cc2)N=C1N (stereo not shown) [Example 112, 2-amino-5-[4-(difluoromethoxy)phenyl]-3-methyl-5-pyridin-4-yl-3,5-dihydro-4H-imidazol-4-one] | 193 to 195 °C | > 1 µM
